Measured values reported in patent publication US20030069271A1, “Quinolone compounds for use in treating viral infections” (priority 1999, published 2003).

These compounds were tested on HIV (assay: Anti-HIV activity in MT4 cells (method of Averett, J. Virol. Methods 1989)). Conditions: Human immunodeficiency virus 1, read-out: Activity Range (IC50).
Assay type: cell-based
Method: The compounds of the present invention were tested for anti-HIV activity in MT4 cells according to the method described by Averett, D. R., J. Virol.

IC50 | Structure (SMILES)
5 to 100 nM | CCCc1c(OC2CCCCC2)c2cc(Cl)ccc2[nH]c1=O [Example 1, 6-Chloro-4-(cyclohexyloxy)-3-propyl-2(1H)-quinolinone]
5 to 100 nM | CC(C)c1c(OC#CC2CC2)c2cc(F)ccc2[nH]c1=O [Example 36, 4-[(2-Cyclopropylethynyl)oxy]-6-fluoro-3-(isopropyl)-2(1H)-quinolinone]
5 to 100 nM | CC(C)c1c(OC2CCCCC2)c2cc(Cl)ccc2[nH]c1=O [Example 9, 6-Chloro-4-(cyclohexyloxy)-3-isopropyl-2(1H)-quinolinone]
5 to 100 nM | CCCc1c(OC2CCCCC2)c2cc(Cl)ccc2[nH]c1=S [Example 20, 6-Chloro-4-(cyclohexyloxy)-3-propyl-2(1H)-quinolinethione]
5 to 100 nM | CCCc1c(OC#CC2CC2)c2cc(F)ccc2[nH]c1=O [Example 37, 4-[(2-Cyclopropylethynyl)oxy]-6-fluoro-3-propyl-2(1H)-quinolinone]
100 to 500 nM | CCCc1c([S+]([O-])C2CCCCC2)c2cc(Cl)ccc2[nH]c1=O (centres unmarked) [Example 24, 6-Chloro-4-(cyclohexylsulfinyl)-3-propyl-2(1H)-quinolinone]
500 to 2000 nM | CCCc1c(OC2CCCC2)c2cc(C)ccc2[nH]c1=O [Example 10, 4-Cyclopentyloxy-6-methyl-3-propyl-2(1H)-quinolinone]
100 to 500 nM | CCCc1c(OCC2CC2)c2cc(Cl)ccc2[nH]c1=O [Example 3, 6-Chloro-4-(cyclopropylmethoxy)-3-propyl-2(1H)-quinolinone]
5 to 100 nM | CCCc1c(OC#CC2CC2)c2cc(Cl)ccc2[nH]c1=O [Example 35, 6-Chloro-4-[(2-cyclopropylethynyl)oxy]-3-propyl-2(1H)-quinolinone]
500 to 2000 nM | CCCc1c(OCC2OCCO2)c2cc(Cl)ccc2[nH]c1=O [Example 6, 6-Chloro-4-(1,3-dioxolan-2-ylmethoxy)-3-propyl-2(1H)-quinolinone]
500 to 2000 nM | CCCc1c(OCC2CCCCC2)c2cc(Cl)ccc2[nH]c1=O [Example 5, 6-Chloro-4(cyclohexylmethoxy)-3-propyl-2(1H)-quinolinone]
5 to 100 nM | CCc1c(OC#CC2CC2)c2cc(F)ccc2[nH]c1=O [Example 45, 4-[(2-Cyclopropylethynyl)oxy]-3-ethyl-6-fluoro-2(1H)-quinolinone]
5 to 100 nM | CC(C)c1c(OC#CC2CC2)c2cc(Cl)ccc2[nH]c1=O [Example 46, 6-Chloro-4-[(2-Cyclopropylethynyl)oxy]-3-isopropyl-2(1H)-quinolinone]

Same assay, conditions: read-out: Activity Range (IC50)

IC50 | Structure (SMILES)
5 to 100 nM | CC(C)Cc1c(OC#CC2CC2)c2cc(F)ccc2[nH]c1=O [Example 47, 4-[(2-Cyclopropylethynyl)oxy]-6-fluoro-3-isobutyl-2(1,H)-quinolinone]
